# In patent publication US5120641A (Daiichi Pure Chemicals Co., Ltd., priority 1989, dated 1992):
# Entries after “also recorded” stand apart in the source; their conditions may differ. Read-outs that look alike come from different tables or passages of the source.
# Tests used:
# [1] = molecular target: T1, serotonin uptake sites ([^3 H]6-nitroquipazine binding, rat brain membranes) (Rattus norvegicus, UniProt P31652); experiment: Inhibition of [^3 H]6-nitroquipazine binding by several drugs
# T1 construct: from tissue; host or cells: rat brain minus cerebellum, pons and medulla oblongata; washed membrane homogenate
# Experimental: (§1) Rats were killed by decapitation and the brains (minus cerebellum, pons medulla and oblongata) were rapidly removed. The brain tissue was homogenized in 50 volumes of ice-cold buffer (50 mM Tris-HCl, 120 mM NaCl, 5 mM KCl, pH 7.4) with a Kinematica Polytron homogenizer at setting 5 for 30 seconds. The homogenate was centrifuged at 48,000×g for 10 minutes. The resulting pellet was resuspended in 50 volumes of ice-cold buffer and recentrifuged. The final pellet was resuspended in the same 50 volumes of buffer.
# (§2) Aliquots of membrane suspension were incubated with [^3 H]6-nitroquipazine (30-1,200 pM) at 22° C. for 2 hours for the equilibrium saturation. After the addition of 4 ml of ice-cold buffer the homogenates were rapidly filtered through Whatman GF/C filters pretreated with 0.05% polyethleneimine. The filters were washed with ice-cold buffer (3×5 ml). The radioactivity trapped by the filters was determined by a liquid scintillation counter.
# Ten different concentrations of the drugs were used for each determination. Aliquots of membrane suspension were incubated with [^3 H]6-nitroquipazine at 22° C. for 2 hours. The specific binding of [^3 H]6-nitroquipazine was determined as described in Example 2.
# Drug IC50 values were defined by means of the iterative non-linear least-squares method.
# [2] = molecular target: T2, serotonin uptake sites (rat cerebral cortical membranes) (Rattus norvegicus, UniProt P31652); experiment: [^3 H]6-nitroquipazine binding to cerebral cortical membranes after serotonin neuronal lesions with p-chloroamphetamine; settings: for Bmax / Kd: cerebral cortex, mean ± S.E.M.
# T2 construct: The cerebral cortex of rat brain was rapidly dissected; from tissue; host or cells: rat cerebral cortex membranes (p-chloroamphetamine-treated rats)
# Experimental: as §2
# (§3) Rats were injected i.p. three times (24 hours interval) with p-chloroamphetamine (2.5 mg/kg), and were decapitated 7 days after final injection. The cerebral cortex of rat brain was rapidly dissected, and [^3 H]6-nitroquipazine binding to cerebral cortical membranes was examined as described previously.
# rat cerebral cortex = experiment: Serotonin and 5-hydroxyindoleacetic acid content in cerebral cortex of p-chloroamphetamine lesioned rats; assay type: in vivo
# Experimental: as §3
# [3] = molecular target: T3, serotonin uptake sites (rat brain membranes) (Rattus norvegicus, UniProt P31652); experiment: [^3 H]6-Nitroquipazine saturation binding to rat brain membranes (Scatchard analysis)
# T3 construct: from tissue; host or cells: rat brain minus cerebellum, pons and medulla oblongata; washed membrane homogenate
# Experimental: as §1, §2
# [4] = molecular target: serotonin uptake sites (rat brain regions) (Rattus norvegicus, UniProt P31652); experiment: Regional distribution of [^3 H]6-nitroquipazine binding in rat brain
# Experimental: as §2
# Rats were killed by decapitation and the brains were dissected (cerebral cortex, striatum, hippocampus, hypothalamus, midbrain, cerebellum, pons medulla and oblongata) on ice. [^3 H]6-Nitroquipazine binding was estimated as described previously.
# [5] = […] [^3 H]6-nitroquipazine, 22° C., 2 hours
# T1 sequence (P31652 whole entry): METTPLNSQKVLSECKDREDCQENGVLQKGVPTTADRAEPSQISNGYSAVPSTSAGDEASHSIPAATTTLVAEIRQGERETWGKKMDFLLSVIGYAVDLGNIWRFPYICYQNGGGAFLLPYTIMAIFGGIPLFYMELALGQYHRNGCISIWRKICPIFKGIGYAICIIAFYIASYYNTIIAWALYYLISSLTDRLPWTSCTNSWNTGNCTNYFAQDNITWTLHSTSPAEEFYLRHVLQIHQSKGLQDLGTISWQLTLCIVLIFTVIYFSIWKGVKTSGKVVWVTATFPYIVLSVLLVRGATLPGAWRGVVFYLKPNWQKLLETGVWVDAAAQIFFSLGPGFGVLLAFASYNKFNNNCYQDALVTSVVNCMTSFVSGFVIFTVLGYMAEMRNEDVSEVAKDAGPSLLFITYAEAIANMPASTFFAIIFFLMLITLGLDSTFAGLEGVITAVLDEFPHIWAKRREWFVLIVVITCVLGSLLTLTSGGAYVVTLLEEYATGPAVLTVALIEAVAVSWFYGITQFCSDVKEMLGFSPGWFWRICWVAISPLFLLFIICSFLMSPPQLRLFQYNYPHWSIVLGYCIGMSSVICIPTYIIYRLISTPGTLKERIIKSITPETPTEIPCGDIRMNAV
# Sequence of serotonin uptake sites (rat brain regions) (P31652 whole entry): as above
# T3 sequence (P31652 whole entry): as above
# T2 sequence (P31652 whole entry): as above
compound,measurement,setting,value
"O=[N+]([O-])c1ccc2nc(N3CCNCC3)ccc2c1 [6-Nitroquipazine, 6-nitro-2-piperazinylquinoline]",Ki,[1]; [5],low nanomolar ranges
same,Ki,[1]; read-out: Ki,0.128 nM
CC(N)Cc1ccc(Cl)cc1 (centres unmarked) [p-chloroamphetamine],decrease of [^3 H]6-nitroquipazine binding to cortical membranes of lesioned rats compared to controls,"[2]; p-chloroamphetamine 2.5 mg/kg i.p. three times, 7 days after final injection",72%
same,Kd change in lesioned rats,"[2]; p-chloroamphetamine 2.5 mg/kg i.p. three times, compared to controls",slightly decreased
same,endogenous serotonin levels and [^3 H]6-nitroquipazine binding,rat cerebral cortex; destruction of serotonin neuron terminals by p-chloroamphetamine,decreases in endogenous serotonin levels and [^3 H]6-nitroquipazine binding
same,content of 5-hydroxyindoleacetic acid in the cerebral cortex,"rat cerebral cortex; lesioned rats, p-chloroamphetamine 2.5 mg/kg i.p. three times, control 0.2123±0.038",0.0541±0.008 ng/mg tissue
same,content of serotonin in the cerebral cortex,"rat cerebral cortex; lesioned rats, p-chloroamphetamine 2.5 mg/kg i.p. three times, control 0.3362±0.037",0.129±0.037 ng/mg tissue
c1ccc2c(CCC3CCNCC3)c[nH]c2c1 [Indalpine],Ki,[1]; [5],low nanomolar ranges
same,Ki,[1]; read-out: Ki,1.93 nM
"O=[N+]([O-])c1ccc2nc(N3CCNCC3)ccc2c1 [[^3 H]6-nitroquipazine, Tritium-labeled 6-nitro-2-piperazinylquinoline]",binding to rat brain membranes,[3]; FIG. 1,bound with high affinity to rat brain membranes in a saturable and reversible fashion
same,specific binding as share of total binding,"[3]; at equilibrium, 110 pM [^3 H]6-nitroquipazine, non-specific: 1 μM paroxetine",95%
same,potency compared with [^3 H]imipramine and [^3 H]paroxetine,[3]; no comparative data given,more potent than [^3 H]imipramine and [^3 H]paroxetine
same,Kd,"[3]; rat brain membranes, 22° C., 2 hours, 30-1,200 pM radioligand, Scatchard analysis, read-out: apparent equilibrium dissociation constant (Kd)",0.093 nM
same,maximal number of binding sites (Bmax),"[3]; rat brain membranes, 22° C., 2 hours, Scatchard analysis",832 fmol/mg protein
same,Bmax,[2]; control rats,616.0 ± 64.4 fmole/mg protein
same,Kd,[2]; control rats,0.141 nM
same,Bmax,"[2]; rats treated with p-chloroamphetamine (2.5 mg/kg i.p. x3), ***P < 0.001 vs control",170.5 ± 44.8 fmole/mg protein
same,Kd,"[2]; rats treated with p-chloroamphetamine (2.5 mg/kg i.p. x3), *P < 0.01 vs control",0.108 ± 0.01 nM
same,Bmax,[4]; Cerebellum,91.2 ± 4.0 fmole/mg protein
same,Bmax,[4]; Cortex,565.6 ± 28.3 fmole/mg protein
same,Bmax,[4]; Hippocampus,612.2 ± 35.4 fmole/mg protein
same,Bmax,[4]; Hypothalamus,1211.8 ± 33.2 fmole/mg protein
same,Bmax,[4]; Medulla oblongata,598.2 ± 25.6 fmole/mg protein
same,Bmax,[4]; Midbrain,1107.8 ± 30.2 fmole/mg protein
same,Bmax,[4]; Striatum,807.4 ± 41.5 fmole/mg protein
same,specific binding by brain region,[4]; rat brain regions,"highest in the hypothalamus and midbrain; also recorded: moderately high in the striatum, hippocampus, medulla oblongata and cerebral cortex; also recorded: lowest in the cerebellum"
